Measured values reported in patent US11535599B2, “Benzisoxazole derivative” (Sumitomo Pharma Co., Ltd., priority 2020, dated 2022).

How the values were obtained:
[1] = test system: unilateral lesion model of nigrostriatal dopamine neuron induced with 6-OHDA; experiment: Extending duration of levodopa-induced rotational behavior in 6-OHDA unilateral lesion model; type: in vivo, rat; conditions: Examples 10 or 30 mg/kg oral; rasagiline 0.6 mg/kg; with levodopa 5 mg/kg i.p.
[2] = test system: tacrine-induced Parkinson's disease tremor model; experiment: Anti-tremor effect in tacrine-induced Parkinson's disease tremor model; type: in vivo, rat; conditions: Example 1 10-100 mg/kg, Example 13 3-100 mg/kg oral; tacrine 2.5 mg/kg i.p.; counted 10 minutes
Description: One of the causes of tremor in Parkinson's disease is thought to be a decrease of intracerebral dopamine content, said decrease can hyper-activate the cholinergic nervous system in a counteractive manner to cause the symptom. In the present model, an acetylcholinesterase inhibitor activates the cholinergic nervous system, which breaks down the balance between intracerebral dopamine and acetylcholine to initiate a tremor symptom. Thus, the model is well known as a drug-induced model suffering from tremor in Parkinson's disease. With the present model, the effect of the present compound for inhibiting the tremor in Parkinson's disease was evaluated.
In the present test, male Slc: SD rats (Japan SLC, Inc.) were used. The present compound (Example 1 (10 mg/kg, 30 mg/kg, or 100 mg/kg), Example 13 (3 mg/kg, 10 mg/kg, 30 mg/kg, or 100 mg/kg)) was orally administered to the rat. One hour later, tacrine (2.5 mg/kg) was intraperitoneally administered to the rat. Ten minutes after the administration of tacrine, the number of tremulous jaw movements was counted for 10 minutes.

[3] = test system: levodopa-induced dyskinesia in 6-OHDA unilateral lesion model; experiment: Effect for inhibiting levodopa-induced dyskinesia; type: in vivo, rat; conditions: Examples 30 or 100 mg/kg, rasagiline 0.2 or 0.6 mg/kg, daily for two weeks
Description: A unilateral lesion model of nigrostriatal dopamine neuron induced with 6-hydroxydopamine (6-OHDA) is broadly used for evaluating the drug efficacy for treating Parkinson's disease, as mentioned in Test 2. In addition, it is known that dyskinesia is developed when the present model receives repetitive administration of levodopa, which is similar to the phenomenon that patients of Parkinson's disease who have received long-term administration of levodopa develop dyskinesia. With the present model, the effect of the present compound on the dyskinesia induced by repetitive administration of levodopa was evaluated. As shown in Test 2, a unilateral lesion model of nigrostriatal dopamine neuron was prepared. One day before starting the repetitive administration of levodopa, levodopa methyl ester hydrochloride (5.86 mg/kg) containing benserazide hydrochloride ([…]) (whose ratio was 4:1 in terms of free form) was intraperitoneally administered to the model, and the rotational behavior of the model was observed from 20 minutes to 140 minutes after the administration. The models were classified considering three factors of the total rotation number (20-140 minutes after the administration), the later term of the rotation (120-140 minutes after the administration), and the rotational duration, so that the dispersion of each group could be equal. Two days after the classification, the repetitive administration of levodopa methyl ester hydrochloride (6 mg/kg) and benserazide hydrochloride (12 mg/kg) once a day for two weeks was started. […] The evaluation of dyskinesia was done after one week and two weeks of the repetitive administration. […]

Rat striatum MAOB = Rat striatum MAOB (Rattus norvegicus (Rat), UniProt P19643); experiment: Activity for inhibiting monoamine oxidase B (MAOB); type: biochemical; conditions: [14C] β-PEA substrate; read-out: Rat striatum MAOB IC50
Sequence of Rat striatum MAOB (P19643 whole entry): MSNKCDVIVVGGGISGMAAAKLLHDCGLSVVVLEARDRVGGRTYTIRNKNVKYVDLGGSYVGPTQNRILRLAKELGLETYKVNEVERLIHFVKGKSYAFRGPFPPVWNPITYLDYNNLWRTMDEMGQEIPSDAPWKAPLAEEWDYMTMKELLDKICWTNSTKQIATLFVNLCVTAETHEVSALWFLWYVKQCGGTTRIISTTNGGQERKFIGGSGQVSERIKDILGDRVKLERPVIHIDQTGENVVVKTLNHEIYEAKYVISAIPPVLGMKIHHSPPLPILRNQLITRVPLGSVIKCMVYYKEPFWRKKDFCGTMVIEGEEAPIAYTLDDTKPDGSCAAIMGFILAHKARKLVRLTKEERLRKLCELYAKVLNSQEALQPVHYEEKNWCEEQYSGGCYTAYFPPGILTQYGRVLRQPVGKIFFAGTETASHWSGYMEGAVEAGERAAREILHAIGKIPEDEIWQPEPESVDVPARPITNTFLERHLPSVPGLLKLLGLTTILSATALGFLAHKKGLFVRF
Protocol: MAOB is an enzyme involved in oxidative de-amino acid reaction of an endogenous monoamine neurotransmitter such as dopamine. […] The effect of the present compounds for inhibiting MAOB in rat striatum and simian striatum was tested.
Mitochondria⋅synaptosome fraction containing MAOB was prepared according to the following procedure. To striata of male Slc: Wistar rat (Japan SLC, Inc.) or male cynomolgus monkey (HAMRI CO., LTD.) was added 0.32 mol/L aqueous sucrose by 10 mL per 1 gram as wet weight of the tissue, and the mixture was homogenized. The homogenate was centrifuged at 4° C. at 1,000 g for 10 minutes, and the obtained supernatant was centrifuged again at 4° C. at 17,200 g for 20 minutes. To the obtained precipitate was added a prepared buffer solution (10 mmol/L Tris-HCl buffer solution (pH 7.4), 0.25 mol/L aqueous sucrose, 0.5 mmol/L EDTA-2K) by 10 mL per 1 gram as wet weight of the original tissue, and the mixture was centrifuged again at 4° C. at 17,200 g for 20 minutes. To the obtained precipitate was added the prepared buffer solution by 40 mL per 1 gram as wet weight of the original tissue. The mixture was suspended to be used as an enzyme homogenate solution.
As a substance to be degraded by MAOB, ^14C-labeled β-phenylethylamine ([^14C] β-PEA) was used. [^14C] β-PEA and the present compound solution diluted to each concentration were incubated with the enzyme homogenate solution at 37° C. for a given period, and then the reaction was stopped by adding 3 mol/L cold HCl thereto. The reaction product was extracted with a mixture of water-saturated toluene and ethyl acetate (1:1). The supernatant organic layer was separated, a liquid scintillation cocktail (ACSII, GE Healthcare) was added to the separated organic layer, and the radioactivity was measured with a liquid scintillation counter (TRI-CARB 3100TR, Packard). The IC50 value of each compound was determined based on two parameter logistic model with the inhibitory data of each concentration, said data were obtained from plural trials.

SMILES	rotational number in the late phase (100-120 minutes) [1]	number of tremulous jaw movements [2]	dyskinesia induced by repetitive administration of levodopa (AIMS score) [3]	IC50 (Rat striatum MAOB)
CC(c1noc2ccccc12)S(N)(=O)=O (centres unmarked) [Example 1, 1-(Benzo[d]isoxazol-3-yl)ethane-1-sulfonamide]	significantly increased the rotational number in the late phase	significantly decreased the number of tremulous jaw movements per unit time	the onset of dyskinesia induced by repetitive administration of levodopa was inhibited	349 µM
C[C@H](c1noc2ccccc12)S(N)(=O)=O [Example 13, (1R)-1-(1,2-benzoxazol-3-yl)ethane-1-sulfonamide]	significantly increased the rotational number in the late phase	significantly decreased the number of tremulous jaw movements per unit time	the onset of dyskinesia induced by repetitive administration of levodopa was inhibited	> 600 µM
